Earlier results on 1 compound are cited in patent US20100221818A1, “Device for the extemporaneous preparation of active preparations” (ALAXIA, priority 2009, published 2010).

The conditions of this series: in the absence of peroxidase and/or of hydrogen peroxide.

As for `N#CSO` [hypothiocyanite], the half-life entry is reported as “approximately 24 hours”.
